{"source": "patent US20220079909A1", "about": "“Food Supplement For Improving Sports Performance” (NUTRIBAM BV, priority 2019, published 2022)", "test_system": "male subjects", "test": "Synergetic efficiency of sulphoraphane and curcumin in four groups: training diary, HRV, RHR (Example 4)", "assay_type": "in vivo, human", "conditions": "5-day period; for muscle pain and fatigue during the day (training diary): oral daily dose, compared to the negative control (Group nC, Gatorade powder); for HRV and RHR indices (overtraining): compared to the negative control (Group nC)", "protocol": "The synergetic efficiency of a composition comprising both sulphoraphane and curcumin, was analysed. This analysis was realized, for monitoring the performances and recuperation of subjects, after doing a daily physical activity. The monitoring was done by means of a training diary which had to be completed three times a day, as well as by measuring the 'heart rate variability' (HRV), and the 'rest hear rate' (RHR) of these subjects. The HRV was analysed under controlled laboratory circumstances, before and after doing the prescribed daily physical activity. Analogously, the RHR was analysed under controlled laboratory circumstances, before and after doing the prescribed daily physical activity. The training diary was made up of a questionnaire, which needed to be completed by means of a scale of five (scale of […]). Questions were asked about possible muscle pain of the subjects, but also for example their energy level during the different moments of the day. 37 male subjects were selected to take part in the experiment. Their physical characteristics were as follows (average and SD): age 27.6 SD:1.6 years; weight 79.3 SD:2.1 kg; length 184 SD:3 cm. The subjects were divided into 4 groups: a group receiving only curcumin (Group C, n=10) (daily dose of 50 mg), a group receiving only sulphoraphane (Group S, n=10) (daily dose 25 mg), a group receiving both curcumin and sulphoraphane (Group C+S, n=10) (the same concentrations as the controls), and finally, a negative control was included in the experiment, it comprises a group receiving a similar dose of placebo, thereto Gatorade powder was used (Group nC, n=7). Each subject was asked to take a prescribed daily dose for five successive days. Each dose was dissolved in hot water. During this period, the subjects also had to follow a similar protein diet. The whole experiment was divided into 4 time periods, here, the different groups were tested successively. Between the different time periods, a two-week period was provided in which no experiment was carried out. The different compositions were administered orally every day in the form of a powder or dispersed in a drink. The daily dose of this powder for Group C comprised […] and 950 mg of Gatorade powder. The daily dose of this powder for Group S comprised […] and 950 mg of Gatorade powder. The daily dose of this powder for Group C+S comprised 25 mg of sulphoraphane, 50 mg of curcumin and 950 mg of Gatorade powder. The daily dose of this powder for Group nC comprised 1000 mg of Gatorade powder.", "data": [{"smiles": "COc1cc(/C=C/C(=O)CC(=O)/C=C/c2ccc(O)c(OC)c2)ccc1O", "note": "[Group C, curcumin]", "values": [{"measurement": "muscle pain and fatigue during the day (training diary)", "value": "less muscle pain and fatigue"}, {"measurement": "HRV and RHR indices (overtraining)", "value": "will probably overtrain less"}]}, {"smiles": "C[S+]([O-])CCCCN=C=S", "note": "(stereo not shown) [Group S, 1-isothiocyanato-4-methyl sulfinyl butane]", "values": [{"measurement": "muscle pain and fatigue during the day (training diary)", "value": "less muscle pain and fatigue"}, {"measurement": "HRV and RHR indices (overtraining)", "value": "will probably overtrain less"}]}]}
